# Results as given in patent publication US20120035161A1, “Novel Compositions and Methods of Treating Diseases Using the Same” (CORRIDOR PHARMACEUTICALS, INC., priority 2006, published 2012).
# Tested on: Monocrotaline model of pulmonary arterial hypertension
# Assay: Monocrotaline model of pulmonary arterial hypertension (PAH)
# Type: in vivo, Sprague-Dawley rats
# Procedure: Adult male Sprague-Dawley rats (287±4 g) were obtained from Charles River Laboratories (Raleigh, N.C.). Animals housed individually in a temperature/humidity controlled room with 12-hour light/dark cycles had free access to water and food and were acclimated for one week prior to the study. All experimental protocols were approved by the University of Illinois at Chicago Care and Use Committee, and all experiments were conducted in accordance with the NIH guidelines for animal welfare.
# Rats were randomly assigned to one of five experimental groups (n=10 per group). Rats in groups 1 and 2 served as healthy controls; the remaining rats were injected subcutaneously on Day 0 with 60 mg/kg body weight monocrotaline, the toxic alkaloid of C. spectabilis (dissolved in DMSO at a concentration of 60 mg/mL, Sigma Aldrich, St. Louis, Mo.). On days 1-21, rats were dosed via oral gavage (2 mL/kg) with vehicle (PBS), or ICI-735 at 1 mg/kg or 10 mg/kg. Rats were weighed daily, and the dosages were adjusted appropriately. […]
# After the lungs were harvested, they were instilled with 10% neutral buffered formalin and immersed in the same fixative. The left and right caudal lung lobes were trimmed to produce six transverse samples per rat and these samples were routinely processed and embedded in paraffin blocks. Sections (approximately 5 μm thick) were stained with Verhoeff's elastin/eosin stain and examined by light microscopy, Histopathological findings were classified as: 1-alveolar inflammation and septal remodeling, 2-perivascular inflammation and edema, 3-perivascular fibrosis, and 4-arteriolar medial hypertrophy. The findings were graded by a pathologist without knowledge of treatment group assignment as 0 (not present), 1 (minimal), 2 (mild), 3 (moderate), or 4 (marked).
# The distribution of each finding, if present was classified as multifocal or diffuse. The degree of muscularization of small peripheral pulmonary arteries was assessed by examination of sections immunohistochemically reacted with an anti-alpha-smooth muscle actin antibody (rabbit polyclonal ab5694 diluted 1:100, Abeam, Cambridge, Mass.). […]
# [1] = MCT + 1 mg/kg ICI-735, 21 days, n = 10
# [2] = MCT + 10 mg/kg ICI-735, 21 days, n = 10
# [3] = MCT rats, daily oral 10 mg/kg for 21 days, p<0.05
# [4] = SI + 10 mg/kg ICI-735, 21 days, n = 10
structure (smiles),measurement,setting,value
NCC(=O)NCCN1CCN(CCCN2c3ccccc3Sc3ccc(C(F)(F)F)cc32)CC1 [ICI-735],"physical or behavioral drug-related toxicity, daily clinical evaluation","1 or 10 mg/kg oral, 21 days",no evidence
same,"Incidence: Alveolar inflammation/septal remodeling, severity score 1",[1],3
same,"Incidence: Alveolar inflammation/septal remodeling, severity score 2",[1],4
same,"Incidence: Alveolar inflammation/septal remodeling, severity score 3",[1],1
same,"Incidence: Alveolar inflammation/septal remodeling, severity score 4",[1],2
same,"Incidence: Arteriolar medial hypertrophy, severity score 1",[1],1
same,"Incidence: Arteriolar medial hypertrophy, severity score 2",[1],6
same,"Incidence: Arteriolar medial hypertrophy, severity score 3",[1],3
same,"Incidence: Perivascular flbrosis, severity score 0",[1],2
same,"Incidence: Perivascular flbrosis, severity score 1",[1],5
same,"Incidence: Perivascular flbrosis, severity score 2",[1],3
same,"Incidence: Perivascular inflammation/edema, severity score 1",[1],4
same,"Incidence: Perivascular inflammation/edema, severity score 2",[1],5
same,"Incidence: Perivascular inflammation/edema, severity score 3",[1],1
same,"Incidence: Alveolar inflammation/septal remodeling, severity score 1",[2],6
same,"Incidence: Alveolar inflammation/septal remodeling, severity score 2",[2],3
same,"Incidence: Alveolar inflammation/septal remodeling, severity score 3",[2],1
same,"Incidence: Arteriolar medial hypertrophy, severity score 0",[2],3
same,"Incidence: Arteriolar medial hypertrophy, severity score 1",[2],5
same,"Incidence: Arteriolar medial hypertrophy, severity score 2",[2],2
same,"Incidence: Perivascular flbrosis, severity score 0",[2],7
same,"Incidence: Perivascular flbrosis, severity score 1",[2],3
same,"Incidence: Perivascular inflammation/edema, severity score 1",[2],8
same,"Incidence: Perivascular inflammation/edema, severity score 2",[2],2
same,"effects of MCT on PAP, RVSP and RV/BW","MCT rats, 1 mg/kg",did not attenuate
same,incidences and severities of perivascular fibrosis and arteriolar medial hypertrophy,"MCT rats, 10 mg/kg",marked decrease
same,"severities of alveolar inflammation and septal remodeling, and perivascular inflammation and edema","MCT rats, 10 mg/kg, compared to MCT/vehicle",clearly diminished
same,reduction of MCT-induced elevation of PAP,[3],75%
same,reduction of MCT-induced elevation of RV/BW,[3],81%
same,reduction of MCT-induced elevation of RVSP,[3],78%
same,degree of muscularization of pulmonary arterioles compared with SI/vehicle controls,"MCT rats, high-dose",no significant differences
same,"Incidence: Alveolar inflammation/septal remodeling, severity score 0",[4],1
same,"Incidence: Alveolar inflammation/septal remodeling, severity score 1",[4],9
same,"Incidence: Arteriolar medial hypertrophy, severity score 0",[4],10
same,"Incidence: Perivascular flbrosis, severity score 0",[4],10
same,"Incidence: Perivascular inflammation/edema, severity score 0",[4],4
same,"Incidence: Perivascular inflammation/edema, severity score 1",[4],5
same,"Incidence: Perivascular inflammation/edema, severity score 2",[4],1
same,"changes in PAP, RVSP or RV/BW compared with vehicle controls","SI rats, 10 mg/kg",no changes
same,Mean arterial pressure (MAP) compared with controls,all ICI-735-treated groups,unmodified
same,heart rate (HR) compared with controls,all ICI-735-treated groups,unmodified
